Data reported in patent publication US12091425B2 (AMGEN INC., priority 2016, dated 2024).

Legend:
[1] = molecular target: T1, Mcl-1/Bim interaction, recombinant human Mcl-1 (171-327) (Homo sapiens, UniProt Q07820); assay: Cell free Mcl-1: Bim Affinity Assay (Mcl-1 HTRF); format: binding
T1 construct: made in house
Procedure, shortened: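 Read-out is time-resolved FRET after overnight incubation, using a biotin-labelled peptide from human Bim (51-76) as the binding partner; IC50 was derived from competition curves.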

[2] = test system: OPM-2 human multiple myeloma cell line; assay: Cell Viability Assay (OPM-2 10 FBS); format: cell-based; conditions: OPM-2 cells, CellTiter-Glo
Method: Cell Viability Assay (OPM-2 10 FBS)
Cells were seeded into 384-well plates at 3000 cells/well density in complete growth medium containing 10% FBS, and incubated for 16 h with serially diluted test compounds in a 37° C. incubator with 5% CO2. Cell viability was tested using CellTiter-Glo® assay (Promega, Madison, WI) according to the manufacturer recommendations. Luminescence was determined using an EnVision® Multilabel plate reader 25 min after the addition of detection reagent. IC50 values were then calculated with Xlfit using a logistical 4-parameter fit model in GraphPad Prism (GraphPad Software, San Diego, CA) or in Genedata Screener® (Genedata, Basel, Switzerland).

[3] = TR-FRET, 0.1 nM Mcl-1 (171-327), 0.05 nM biotin-Bim (51-76)
[4] = Homo sapiens, OPM-2, 16 h, 16 h incubation
[5] = Homo sapiens, OPM-2, 16 h, 16 h
[6] = cell free Mcl-1:Bim TR-FRET, recombinant human Mcl-1 (171-327)

T1 sequence (Q07820 171-327): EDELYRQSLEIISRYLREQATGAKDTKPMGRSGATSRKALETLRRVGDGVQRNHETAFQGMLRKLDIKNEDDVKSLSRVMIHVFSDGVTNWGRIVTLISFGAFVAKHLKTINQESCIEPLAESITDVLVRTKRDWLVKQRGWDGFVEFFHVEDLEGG

| IC50 [1, 3] [nM] | IC50 [2, 5] [nM] | Compound | IC50 [1, 6] [nM] | IC50 ([2]; 16 h) [nM] | further results |
| --- | --- | --- | --- | --- | --- |
| 0.988 |  | C[C@@H]1[C@@H](C)C[C@H](CC(=O)N2CC(O)C2)/C=C/[C@@H]2CC[C@H]2CN2C[C@@]3(CCCc4cc(Cl)ccc43)COc3ccc(cc32)C(=O)NS1(=O)=O [Example 1074, (1S,3′R,6′S,7′E,9′R,11′S,12′R)-6-chloro-9′-(2-(3-hydroxy-1-azetidinyl)-2-oxoethyl)-11′,12′-dimethyl-3,4-dihydro-2H,15′H-spiro[naphthalene-1,22′-[20]oxa[13]thia[1,14]diazatetracyclo[14.7.2.0^3,6.0^19,24]pentacosa [7,16,18,24]tetraen]-15′-one 13′,13′-dioxide] |  |  | IC50 [2, 4]: 3850 nM |
| 0.0986 | 162 | C[C@@H]1[C@@H](C)C/C=C/[C@H](OCC(=O)N2CCN(C)CC2)[C@@H]2CC[C@H]2CN2C[C@@]3(CCCc4cc(Cl)ccc43)COc3ccc(cc32)C(=O)NS1(=O)=O [Example 316, (1S,3′R,6′R,7′S,8′E,11′S,12′R)-6-chloro-11′,12′-dimethyl-7′-(2-(4-methyl-1-piperazinyl)-2-oxoethoxy)-3,4-dihydro-2H,15′H-spiro[naphthalene-1,22′-[20]oxa[13]thia[1,14]diazatetracyclo[14.7.2.0^3,6.0^19,24]pentacosa [8,16,18,24]tetraen]-15′-one 13′,13′-dioxide] |  |  |  |
| 3.04 | 1790 | C[C@@H]1C/C=C\[C@H](O)[C@@H]2CC[C@H]2CN2C[C@@]3(CCCc4cc(Cl)ccc43)COc3ccc(cc32)C(=O)NS(=O)(=O)N1C[C@H]1CCCO1 (single isomer, unassigned) [Example 56] |  |  |  |
| 0.294 |  | C[C@@H]1[C@@H](C)S(=O)(=O)NC(=O)c2ccc3c(c2)N(C[C@@H]2CC[C@H]2[C@@H](O)CC[C@@H]1C)C[C@@]1(CCCc2cc(Cl)ccc21)CO3 [Example 1045, (1S,3′R,6′R,7′S,10′S,11′S,12′R)-6-chloro-7′-hydroxy-10′,11′,12′-trimethyl-3,4-dihydro-2H,15′H-spiro[naphthalene-1,22′-[20]oxa[13]thia[1,14]diazatetracyclo[14.7.2.0^3,6.0^19,24]pentacosa [16,18,24]trien]-15′-one 13′,13′-dioxide] |  |  | IC50 [2, 4]: 1140 nM |
| 0.496 | 524 | CC(C)NC(=O)CO[C@H]1/C=C/C[C@H](C)[C@@H](C)S(=O)(=O)NC(=O)c2ccc3c(c2)N(C[C@@H]2CC[C@H]21)C[C@@]1(CCCc2cc(Cl)ccc21)CO3 [Example 296, 2-(((1S,3′R,6′R,7′S,8′E,11′S,12′R)-6-chloro-11′,12′-dimethyl-13′,13′-dioxido-15′-oxo-3,4-dihydro-2H-spiro[naphthalene-1,22′-[20]oxa[13]thia[1,14]diazatetracyclo[14.7.2.0^3,6.0^19,24]pentacosa [8,16,18,24]tetraen]-7′-yl)oxy)-N-(1-methylethyl)acetamide] |  |  |  |
| 0.183 |  | C[C@@H]1[C@@H](C)S(=O)(=O)NC(=O)c2ccc3c(c2)N(C[C@@H]2CC[C@H]2[C@@H](O)/C=C/[C@@H]1C)C[C@@]1(CCCc2cc(Cl)ccc21)CO3 (single isomer, unassigned) [Example 1041] |  |  | IC50 [2, 4]: 77.2 nM |
| 9.08 | 30800 | O=C1NS(=O)(=O)CCCC[C@@H](O)[C@@H]2CC[C@H]2CN2C[C@@]3(CCCc4cc(Cl)ccc43)COc3ccc1cc32 [Example 222, (1S,3′R,6′R,7′R)-6-chloro-7′-hydroxy-3,4-dihydro-2H,14′H-spiro[naphthalene-1,21′-[19]oxa[12]thia[1,13]diazatetracyclo[13.7.2.0^3,6.0^18,23]tetracosa [15,17,23]trien]-14′-one 12′,12′-dioxide] |  |  |  |
| 0.303 | 180 | COCCOCCO[C@H]1/C=C/C[C@H](C)[C@@H](C)S(=O)(=O)NC(=O)c2ccc3c(c2)N(C[C@@H]2CC[C@H]21)C[C@@]1(CCCc2cc(Cl)ccc21)CO3 [Example 377, (1S,3′R,6′R,7′S,8′E,11′S,12′R)-6-chloro-7′-(2-(2-methoxyethoxy)ethoxy)-11′,12′-dimethyl-3,4-dihydro-2H,15′H-spiro[naphthalene-1,22′-[20]oxa[13]thia[1,14]diazatetracyclo[14.7.2.0^3,6.0^19,24]pentacosa[8,16,18,24]tetraen]-15′-one 13′,13′-dioxide] |  |  |  |
|  |  | COC(=O)C[C@@H]1CC/C=C/[C@H](OC)[C@@H]2CC[C@H]2CN2C[C@@]3(CCCc4cc(Cl)ccc43)COc3ccc(cc32)C(=O)NS1(=O)=O [Example 624] | 0.338 | 455 |  |
|  |  | CO[C@H]1C/C=C/[C@H](O)[C@@H]2CC[C@H]2CN2C[C@@]3(CCCc4cc(Cl)ccc43)COc3ccc(cc32)C(=O)NS(=O)(=O)[C@@H]1CC1CC1 (single isomer, unassigned) [Example 574] | 0.393 | 188 |  |
|  |  | C[C@H]1/C=C/[C@@H](O)[C@@H]2CC[C@H]2CN2C[C@@]3(CCCc4cc(Cl)ccc43)COc3ccc(cc32)C(=O)NS(=O)(=O)CC1(C)C (single isomer, unassigned) [Example 494] | 8.81 | 3680 |  |
|  |  | CO[C@H]1/C=C/CCC(CCC(=O)N(C)C)S(=O)(=O)NC(=O)c2ccc3c(c2)N(C[C@@H]2CC[C@H]21)C[C@@]1(CCCc2cc(Cl)ccc21)CO3 (single isomer, unassigned) [Example 622] | 0.224 | 257 |  |
| 0.166 | 71.6 | COC[C@@H]1[C@@H](C)C/C=C/[C@H](O)[C@@H]2CC[C@H]2CN2C[C@@]3(CCCc4cc(Cl)ccc43)COc3ccc(cc32)C(=O)NS1(=O)=O (single isomer, unassigned) [Example 455] |  |  |  |
| 0.529 | 276 | COCCO[C@H]1/C=C/C[C@H](C)N(CCOC)S(=O)(=O)NC(=O)c2ccc3c(c2)N(C[C@@H]2CC[C@H]21)C[C@@]1(CCCc2cc(Cl)ccc21)CO3 (single isomer, unassigned) [Example 69] |  |  |  |
|  |  | COCC[C@H]1C[C@H](C)/C=C/[C@H](O)[C@@H]2CC[C@H]2CN2C[C@@]3(CCCc4cc(Cl)ccc43)COc3ccc(cc32)C(=O)NS1(=O)=O (single isomer, unassigned) [Example 479] | 5.37 | 8120 |  |
| 0.297 |  | O=C1NS(=O)(=O)[C@@H]2CCC[C@H]2C/C=C/[C@H](O)[C@@H]2CC[C@H]2CN2C[C@@]3(CCCc4cc(Cl)ccc43)COc3ccc1cc32 (single isomer, unassigned) [Example 325] |  | 208 |  |
|  | 2140 | Cc1ccc(S(=O)(=O)NCCO[C@H]2/C=C/C[C@H](C)[C@@H](C)S(=O)(=O)NC(=O)c3ccc4c(c3)N(C[C@@H]3CC[C@H]32)C[C@@]2(CCCc3cc(Cl)ccc32)CO4)cc1 [Example 726, N-(2-(((1S,3′R,6′R,7′S,8′E,11′S,12′R)-6-chloro-11′,12′-dimethyl-13′, 13′-dioxido-15′-oxo-3,4-dihydro-2H-spiro[naphthalene-1,22′-[20]oxa[13]thia[1,14]diazatetracyclo[14.7.2.0^3,6.0^19,24]pentacosa[8,16,18,24]tetraene]-7′-yl)oxy)ethyl)4-methylbenzenesulfonamide] | 12.2 |  |  |
|  |  | COC(=O)C[C@H]1CC/C=C/[C@H](O)[C@@H]2CC[C@H]2CN2C[C@@]3(CCCc4cc(Cl)ccc43)COc3ccc(cc32)C(=O)NS1(=O)=O [Example 620] | 0.71 | 4080 |  |
|  | 259 | COCC(O)CC1CCC=CC(OC)C2CCC2CN2CC3(CCCc4cc(Cl)ccc43)COc3ccc(cc32)C(=O)NS1(=O)=O (single isomer, unassigned) [Example 658] | 0.285 |  |  |
|  | 1760 | CCOC(=O)CO[C@H]1/C=C/C[C@H](C)[C@H](C)S(=O)(=O)NC(=O)c2ccc3c(c2)N(C[C@@H]2CC[C@H]21)C[C@@]1(CCCc2cc(Cl)ccc21)CO3 [Example 738, ethyl (((1S,3′R,6′R,7′S,8′E,11′S,12′S)-6-chloro-11′,12′-dimethyl-13′,13′-dioxido-15′-oxo-3,4-dihydro-2H-spiro[naphthalene-1,22′-[20]oxa[13]thia[1,14]diazatetracyclo[14.7.2.0^3,6.0^19,24]pentacosa[8,16,18,24]tetraen]-7′-yl)oxy)acetate] | 3.21 |  |  |
|  | 420 | C[C@@H]1[C@@H](C)C/C=C\[C@H](OCCN2CCOCC2)[C@@H]2CC[C@H]2CN2C[C@@]3(CCCc4cc(Cl)ccc43)COc3ccc(cc32)C(=O)NS1(=O)=O [Example 724, (1S,3′R,6′R,7′S,8′Z,11′S,12′R)-6-chloro-11′,12′-dimethyl-7′-(2-(4-morpholinyl)ethoxy)-3,4-dihydro-2H,15′H-spiro[naphthalene-1,22′-[20]oxa[13]thia[1,14]diazatetracyclo[14.7.2.0^3,6.0^19,24]pentacosa [8,16,18,24]tetraen]-15′-one 13′,13′-dioxide] | 0.485 |  |  |
|  | 131 | COC1CC=CC(O)C2CCC2CN2CC3(CCCc4cc(Cl)ccc43)COc3ccc(cc32)C(=O)NS(=O)(=O)C1CC1CCCO1 (single isomer, unassigned) [Example 638] | 0.243 |  |  |

| Compound | IC50 [1, 3] [nM] | IC50 [2, 5] [nM] | IC50 [1, 6] [nM] | IC50 ([2]; 16 h) [nM] | further results |
| --- | --- | --- | --- | --- | --- |
| CC[C@@H]1C[C@H](C)/C=C/[C@H](O)[C@@H]2CC[C@H]2CN2C[C@@]3(CCCc4cc(Cl)ccc43)COc3ccc(cc32)C(=O)NS1(=O)=O (single isomer, unassigned) [Example 1024] | 0.296 |  |  |  | IC50 ([2]; 16 h incubation): 414 nM |
| O=C1NS(=O)(=O)[C@H](C2CC2)CC/C=C/[C@H](O)[C@@H]2CC[C@H]2CN2C[C@@]3(CCCc4cc(Cl)ccc43)COc3ccc1cc32 (single isomer, unassigned) [Example 149] | 0.77 |  |  | 1330 |  |
